Experiments:
SPL = target: T1, SPL (Homo sapiens, UniProt O95470); assay: Inhibition of SPL activity in vitro (whole cell extracts of HEK293 cells with human SPL adenoviral construct); type: biochemical; parameters: expressed in transfected cells; host or cells: HEK293 infected with adenoviral vector
T1 sequence (O95470 1-568): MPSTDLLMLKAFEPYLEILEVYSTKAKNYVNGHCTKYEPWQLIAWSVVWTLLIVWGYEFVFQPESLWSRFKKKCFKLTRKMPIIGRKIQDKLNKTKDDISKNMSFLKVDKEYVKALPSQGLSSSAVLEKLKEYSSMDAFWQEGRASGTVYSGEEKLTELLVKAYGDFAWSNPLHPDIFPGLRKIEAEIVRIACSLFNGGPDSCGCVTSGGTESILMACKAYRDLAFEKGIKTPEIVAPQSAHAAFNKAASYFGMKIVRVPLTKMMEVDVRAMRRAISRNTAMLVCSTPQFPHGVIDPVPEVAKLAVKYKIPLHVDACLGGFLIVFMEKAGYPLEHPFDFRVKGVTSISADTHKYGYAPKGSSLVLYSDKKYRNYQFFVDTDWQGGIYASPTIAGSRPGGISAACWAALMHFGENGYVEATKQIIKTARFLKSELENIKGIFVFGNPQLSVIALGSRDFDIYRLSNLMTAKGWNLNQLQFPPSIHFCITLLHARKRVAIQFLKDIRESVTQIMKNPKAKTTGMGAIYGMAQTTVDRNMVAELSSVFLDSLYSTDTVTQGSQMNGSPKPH
Experimental: Various concentrations of FTY720 or its phosphorylated derivative (FTY720P) were incubated for 30 minutes on ice with whole cell extracts containing high SPL activity by virtue of a human SPL adenoviral expression construct. SPL activity was determined. (A) FTY720; (B) FTY720-P.
SPL enzyme assay: Tissues were homogenized by sonication in 9 volumes of ice-cold homogenization buffer (5 mM MOPS pH 7.5, 1 mM DTT, 1 mM EDTA, 0.25 M sucrose, and 5 micrograms/ml each chymostatin, leupeptin, pepstatin A and antipain). SPL assays were conducted using 50 micrograms protein per assay and radioactive [4,5 ^3H]DHS1P substrate, as described previously (Reiss et al., (2004) J Biol Chem 279, 1281-1290). For in vitro FTY720 and FTY720-P experiments, drug was incubated with whole cell extracts prepared from HEK293 cells infected with an adenoviral vector expressing human SPL. These extracts contained approximately 200 picomoles/mg protein/minute SPL activity. Drug was incubated with extracts for 30 minutes, followed by addition of extracts to reaction buffer and substrate to initiate the reaction.
Although treatment with FTY720 was associated with low (nanomolar) circulating drug levels, it was possible that local concentrations within cells and subcellular compartments may have been considerably higher, since FTY720 has been reported to be actively transported into cells by the actions of drug transporters that recognize long chain bases (Honig et al., (2003) J Clin Invest 111, 627-637).

SPL protein expression = SPL protein expression in thymic extracts by immunoblotting; type: in vivo; details: mice treated for 24 hours
Experimental: (A) SPL gene expression. HEK293 cells were co-transfected with a human SPL luciferase reporter construct and the sea pansy luciferase reporter as a control for transfection efficiency. Twenty-four hours after transfection, cells were treated with 0.3 μM FTY720, 3.0 μM FTY720 or vehicle and incubated for another 24 hours at 37° C. Luciferase activity was then determined as a measure of expression, as described in Experimental Methods. Values shown are luciferase activity normalized to sea pansy luciferase; (B) SPL protein expression. Thymic extracts from control mice (time 0) and mice treated with FTY720 for 24 hours were evaluated for SPL protein expression by immunoblotting. Actin was used as a loading control.
SPL expression: To evaluate the effect of FTY720 and FTY720-P on SPL gene expression, HEK293 cells were treated for 30 minutes with 3 μM of either drug, followed by transfection with pSPL-BamHI, a human SPL-luciferase reporter construct. After 48 hours, reporter expression was determined by luciferase activity as described (Oskouian et al., (2005) J Biol Chem 280, 18403-18410)). Western blotting of mouse tissue extracts was performed using a 1:2000 dilution of polyclonal sera raised against the murine SPL C-terminal peptide: (NH2)—V-T-Q-G-N-Q-M-N-G-S—P—K—P—R—(COOH). [SEQ ID NO:11] […]

[1] = 30 minutes incubation with extracts

## CCCCCCCCc1ccc(CCC(N)(CO)CO)cc1 [FTY720]
SPL
  dose dependence of SPL inhibition in vitro: dose-dependent
SPL; [1]
  concentration of maximal effect on SPL activity in vitro: 30 µM
  lowest concentration with effect on SPL activity in vitro: 300 nM
SPL protein expression
  SPL protein expression (immunoblotting): not affected

Source: patent US8124111B2, “Immunomodulation by altering sphingosine 1-phosphate lyase (SPL) activity” (Children's Hospital & Research Center at Oakland, priority 2005, dated 2012)
